Results reported in ChEMBL document CHEMBL1158240, “Phytogrowth-inhibitory and antifungal constituents of Helianthella quinquenervis” (J Nat Prod, 1996).
Values after ≈ are worked out from the molar mass of the structure shown. Active and inactive are the calls of the source. The rule behind the calls is not given here.

Assays:
[1] = Toxicity in brine shrimp; type: organism-based; conditions: artemia, in vivo
Aspergillus niger = experiment: Antimicrobial activity against Aspergillus niger ATCC 16888 by agar dilution method; type: functional, organism-based
MCF7 = experiment: Cytotoxicity against human MCF7 cells after 7 days by MTT assay; type: functional; conditions: MCF7, 168 h, read-out: ED50 (the source's name)
Echinochloa crus-galli = experiment: Phytogrowth-inhibitory activity against Echinochloa crus-galli assessed as inhibition of seedling germination by petri dish bioassay; type: functional, organism-based
Candida albicans = experiment: Antimicrobial activity against Candida albicans ATCC 10231 by agar dilution method; type: functional, organism-based
HT-29 = experiment: Cytotoxicity against human HT29 cells after 7 days by MTT assay; type: functional; conditions: HT-29, 168 h, read-out: ED50 (the source's name)
[2] = test system: Amaranthus hypochondriacus; experiment: Phytogrowth-inhibitory activity against Amaranthus hypochondriacus assessed as inhibition of seedling growth petri dish bioassay; type: functional, organism-based
A549 = experiment: Cytotoxicity against human A549 cells after 7 days by MTT assay; type: functional; conditions: A549, 168 h, read-out: ED50 (the source's name)
[3] = test system: Trichophyton mentagrophytes; experiment: Antimicrobial activity against Trichophyton mentagrophytes ATCC 9129 by agar dilution method; type: functional

SMILES | LC50 [1] [µg/mL] | Activity (Aspergillus niger) | EC50 (MCF7) [µg/mL] | IC50 (Echinochloa crus-galli) [µg/mL] | Activity (Candida albicans) | EC50 (HT-29) [µg/mL] | IC50 [2] [µg/mL] | EC50 (A549) [µg/mL] | MIC [3] [µg/mL]
COC(C)(C)/C=C/c1cc(C(C)=O)ccc1O[C@@H]1O[C@H](CO)[C@@H](O)[C@H](O)[C@H]1O | > 1000 | inactive | 44 (≈ 111 µM) | 231 (≈ 583 µM) | inactive | 61 (≈ 154 µM) | 148 (≈ 373 µM) | 6 (≈ 15.1 µM) | 
C=C(C)[C@H]1Cc2cc(C(C)=O)c(OC)cc2O1 | 8 (≈ 34.4 µM) | inactive | 33 (≈ 142 µM) | 68 (≈ 293 µM) | inactive | 16 (≈ 68.9 µM) | 11 (≈ 47.4 µM) | 1 (≈ 4.31 µM) | 
C=C(C)[C@@H]1Oc2cc(O)c(C(C)=O)cc2[C@H]1OC | 68 (≈ 274 µM) | inactive | 34 (≈ 137 µM) | 323 (≈ 1300 µM) | inactive | 16 (≈ 64.4 µM) | 61 (≈ 246 µM) | 31 (≈ 125 µM) | 
CC(=O)c1cc2c(cc1O)OC(C)(C)C=C2 [DEMETHYLENCECALIN] | 31 (≈ 142 µM) | inactive | 2 (≈ 9.16 µM) | 79 (≈ 362 µM) | inactive | 2 (≈ 9.16 µM) | 27 (≈ 124 µM) | 10 (≈ 45.8 µM) | 58 (≈ 266 µM)
COc1cccc2c1C(=O)c1c(O)c3c(c(O)c1C2=O)C[C@@](O)(C(=O)CO)C[C@@H]3O[C@H]1C[C@H](N)[C@H](O)[C@H](C)O1 [DOXORUBICIN] |  |  | 0.02 (≈ 0.0368 µM) |  |  | 0.04 (≈ 0.0736 µM) |  | 0.002 (≈ 0.00368 µM) | 
COc1cc2c(cc1C(C)=O)C=CC(C)(C)O2 [ENCECALIN] | 31 (≈ 133 µM) | inactive | 29 (≈ 125 µM) | 6 (≈ 25.8 µM) | inactive | 18 (≈ 77.5 µM) | 7 (≈ 30.1 µM) | 25 (≈ 108 µM) | 
C=C(C)c1cc2cc(C(C)=O)c(O)cc2o1 [EUPARIN] | 44 (≈ 203 µM) | inactive | 6 (≈ 27.7 µM) | 252 (≈ 1170 µM) | inactive | 6 (≈ 27.7 µM) | 111 (≈ 513 µM) | 22 (≈ 102 µM) | 29 (≈ 134 µM)
COC1=CC(=O)C[C@@H](C)[C@]12Oc1c(Cl)c(OC)cc(OC)c1C2=O [GRISEOFULVIN] |  |  |  |  |  |  |  |  | 2.6 (≈ 7.37 µM)
CCCCC[C@H]1CCCCCCCCCC(=O)O[C@H]2[C@H](O)[C@@H](CO)O[C@@H](O[C@H]3[C@H](O1)O[C@H](C)[C@H](O)[C@@H]3O)[C@@H]2O[C@@H]1O[C@@H](C)[C@H](OC(=O)[C@@H](C)CC)[C@@H](O[C@@H]2O[C@@H](C)[C@H](O)[C@@H](O)[C@H]2O)[C@H]1OC(=O)[C@@H](C)CC [TRICOLORIN A] |  |  |  | 68 (≈ 66.5 µM) |  |  | 11 (≈ 10.8 µM) |  | 
